The values below come from ChEMBL document CHEMBL1157539, “Thousands of chemical starting points for antimalarial lead identification” (Nature, 2010).

In this test the test system is Plasmodium falciparum. As to the kind of experiment: GSK_TCMDC: Inhibition of Plasmodium falciparum 3D7 in whole erythrocytes, using parasite LDH activity as an index of growth. The format is functional, organism-based. The settings on record: Plasmodium falciparum, 3D7.
As for `O=C(/C=N/O)Nc1ccccc1[N+](=O)[O-]`, the XC50 stood at 785 nM. With `COc1cccc(CNC(=O)c2ccnc(-c3ccc(CNCCOc4ccccc4)cc3)c2)c1` the figure was 1200 nM; with `CC(C)CCC[C@@H]([C@@H](CC1CCCCC1)C(=O)N[C@@H](CCCCNC(=O)OCc1ccccc1)C(=O)Nc1nccs1)N(O)C=O`, 457 nM; with `Nc1nnc(-c2ccc(Cl)c(Br)c2)c(N)n1`, 1040 nM. With `CC(C)N1CCC(NC(=O)N2CCCN(c3ncnc4cc(-c5ccccc5)sc34)CC2)CC1` the figure was 861 nM; with `Clc1cc(Nc2ncnc3sc(C#Cc4ncc[nH]4)cc23)ccc1OCc1ccccn1`, 1110 nM.

`CN(C)C(CNc1ncnc2cc(Cl)ccc12)Cc1ccccc1` (configuration not stated) returned an XC50 of 872 nM. With `O=S(=O)(Nc1cc2c(cc1OCc1ccccc1)CCN(C1CCC1)CC2)c1ccc(-c2ccc(Cl)cc2)cc1` the figure was 1140 nM.

The compound `CCCCC(N)COc1cccc2c(-c3ccncc3)c(-c3cccc(NC(=O)Nc4ccccc4)c3)nn12` (configuration not stated) yielded an XC50 of 878 nM. Then `COc1cccc(CN2CCCC(OC(c3ccccc3)c3ccccc3)C2)c1O` (configuration not stated), with 930 nM; and `Oc1cc2c(cc1CN1CCN(Cc3ccc(Cl)s3)CC1)CCC2`, with 616 nM; and `CC(C)n1cc2c(ccc3nc(N)nc(N)c32)n1`, with 36.9 nM. Then `CCN(C1CCCCC1)S(=O)(=O)c1ccc(OC)c(N2CCN(C(=O)C(Cl)(Cl)Cl)CC2)c1`, with 635 nM; and `Cc1cccc(NC(=O)N(Cc2cc3cc(C)cc(C)c3[nH]c2=O)C2CC2)c1`, with 336 nM; and `O=C(/C=C/c1cc(F)c(F)cc1F)N1CCC(CN2CCC(c3c[nH]c4ccccc34)CC2)CC1`, with 995 nM. Then `CCC[C@@H](C(=O)NCCc1cccc(OC)c1)N1C(=O)c2c(ccc(OC)c2OC)C1C(=O)Nc1c(C)cccc1C` (some centres not stated), with 808 nM; and `O=C(Cc1ccccc1)NC(CCN1CCC(O)(c2cccc(C(F)(F)F)c2)CC1)c1ccc(Cl)c(Cl)c1` (configuration not stated), with 855 nM; and `COc1ccc(CN(C)CCCOc2ccc(NC(=O)c3cccc4c(=O)c5cccc(C)c5[nH]c34)cc2)cc1OC`, with 889 nM. Compound `CC(C)(C)c1ccc(NC(=O)c2cccc(CN3CCCN(Cc4ccc(F)cc4)CC3)c2)cc1` had an XC50 of 989 nM. Turning to `Cc1cc(N2CCNCC2)c2cc(NC(=O)Nc3ccc(Cl)c(Cl)c3)ccc2n1`, the XC50 was determined as 313 nM. With `Cc1nc(C)c(-c2ccc(Oc3cccc(OC(F)(F)F)c3)cc2)c(O)c1Br` the figure was 17.1 nM; with `Cc1cc(N(C)C)nc(Nc2ccc(NC(=O)CCc3ccccc3)cc2)n1`, 850 nM; with `O=C(Nc1ccc([N+](=O)[O-])cc1O)Nc1ccccc1Oc1ccccc1`, 925 nM. On to `O=C(NCC1CCC(C(=O)O)CC1)c1ccc(/C=C/C(=O)N2CCc3ccccc3C2c2ccc3c(c2)OCO3)cc1` (configuration not stated), for which the XC50 came to 892 nM. Then `COc1cc(NC(=O)/C=C/c2cc(F)cc(F)c2F)cc(OCCN2CCC(O)(c3ccccc3)CC2)c1`, with 166 nM; and `O=C(/C=C/c1ccsc1)N1CCC(CCN2CCC(c3c[nH]c4ccccc34)CC2)CC1`, with 905 nM; and `FC(F)(F)c1ccc2c(NN=Cc3cccc(Cl)c3)ccnc2c1`, with 838 nM. `CCCC(C)Nc1nc(C)cc(N[C@@H](CC(C)C)C(=O)NC2CCCC2)n1` (some centres not stated): the XC50 was 1080 nM.

Turning to `N#Cc1ccc2c(c1)CCN(CCC1CCC(NC(=O)c3cccc(-c4ccc(F)cc4)c3)CC1)CC2` (configuration not stated), the XC50 was 822 nM. In the case of `N=C(N)NN=Cc1cc([N+](=O)[O-])ccc1Sc1ccccc1CO`, the XC50 was found to be 1460 nM. `COc1ccc(F)cc1-c1ccccc1CNC(=O)CN(C)S(=O)(=O)c1cc(C)cc(Cl)c1C`: the XC50 was found to be 665 nM. With `COc1ccc(-c2ccc(NC(=O)c3ccc(C#N)cc3)cc2)cc1CN1CCN(C)CC1` the figure was 721 nM. Then `CC(C)(C)COc1ccc2c(N)n[nH]c2c1`, with 789 nM. On to `CC(C)(C)OC(=O)/C=C(\C(=O)OCc1ccc([N+](=O)[O-])cc1)c1csc(NC(c2ccccc2)(c2ccccc2)c2ccccc2)n1`, for which the XC50 came out at 861 nM.

In turn, `Cc1cc(=NN=Cc2ccccc2F)c2cc(C(F)(F)F)ccc2[nH]1` had an XC50 of 433 nM. With `O=C(c1ccccc1NN=C1C(=O)N(c2ccccc2)N=C1c1ccccc1)N1CCOCC1` the figure was 351 nM; with `Clc1ccc(Nc2nc3nonc3nc2Nc2ccc(Cl)c(Cl)c2)cc1`, 645 nM; with `COc1ccc(CCNCc2ccc3c(C)cc(N)nc3c2)cc1`, 568 nM. With `CCOC(=O)c1c(NC(=O)c2ccccc2)sc2c(O)c(CNC3CCCCC3)ccc12` the figure was 752 nM; with `Cc1[nH]c(C)c(-c2ccc(Oc3ccc(Cl)cc3)cc2)c(=O)c1C`, 385 nM. With `COc1ccc(C(=O)Nc2ccc(-c3nc4cc(C)ccc4[nH]3)cc2)cc1OC` the figure was 761 nM; with `CCc1ccc(C2CCN(CCCCNC(=O)c3ccc(NC(=O)c4ccc(Cl)cc4)cc3)CC2)c(OCC(=O)OC)c1`, 1030 nM. Compound `CCCOc1ccc2ccccc2c1CNCCCCCCNCc1c(OCCC)ccc2ccccc12` displayed an XC50 of 791 nM. With `O=C(Nc1ccncc1)Nc1ccc2c(c1)CCN(C1CCC1)CC2` the figure was 1130 nM; with `COc1cccc(C2=CC(C)(C)Oc3cc(OCCN(C)C)ccc32)c1`, 794 nM. With `CC(NCCC1CCC(NC(=O)N[C@H](C)C(O)(c2ccccc2)c2ccccc2)CC1)c1cccc2ccccc12` (some centres not stated) the figure was 1100 nM.

In turn, `CN1CCCC(CN2CCN(Cc3cccc(-c4ccc(-c5nc6cc(F)ccc6[nH]5)cc4)c3)CC2)C1` (configuration not stated) had an XC50 of 139 nM. With `Cc1ccc2ccccc2c1CCCON1C(=N)N=C(N)NC1(C)C` the figure was 3.2 nM.

Regarding `COc1cc(Cc2cnc(N)nc2N)cc(OCCCOc2ccccc2)c1OC`, the XC50 came out at 1080 nM. With `Cc1cccc(NC(=O)Nc2cccc(-c3ccc(-c4nc5cc(C(F)(F)F)ccc5[nH]4)cc3)c2)c1` the figure was 905 nM; with `OC(c1cccc2ccccc12)C1CN(CCc2ccccc2)CCC1(O)c1ccccc1` (configuration not stated), 145 nM; with `COC(=O)c1ccc(CCCNCC(O)c2cccc(C(F)(F)F)c2)cc1` (configuration not stated), 803 nM. Turning to `CCOc1cc(C)ccc1C1CCN(CCN2CCC(CNC(=O)c3ccc(-c4ccc(C(F)(F)F)cc4)cc3)CC2)CC1`, the XC50 was determined as 701 nM. With `Cc1c[nH]c2ccc(/C=C/C(=O)NC3CCC(CCN4CCc5ccc(C#N)cc5CC4)CC3)cc12` (configuration not stated) the figure was 828 nM. Then `CC(=O)Nc1ccc2[nH]cc(C3CCN(CC4CCC(NC(=O)/C=C/c5ccccc5Cl)CC4)CC3)c2n1` (configuration not stated), with 364 nM. With `Cc1c(F)cc(C(=O)NC2CC2)cc1-c1ccc2c(c1)c(C)nn2S(=O)(=O)c1cccs1` the figure was 942 nM; with `O=C(N[C@@H](Cc1ccccc1)C(=O)NCCN1CCCCC1)c1ccc(O)c(-c2cccc(C(F)(F)F)c2)c1`, 850 nM; with `CC(C)C[C@H](NC(=O)OC(C)(C)C)C(=O)Nc1ccc(Cc2ccc(NC(=O)[C@H](CC(C)C)NC(=O)OC(C)(C)C)cc2)cc1`, 761 nM. With `CNc1nc(Nc2ccccc2C)nc2ccccc12`, the XC50 worked out at 443 nM. With `COc1ccc(CNC2CCCC2)cc1-c1ccc(S(=O)(=O)NCCN2CCCC2)s1` the figure was 798 nM. For `COc1ccc(N(c2nc(-c3cc(Cl)ccc3Cl)cs2)C2CCNCC2)cc1`, the XC50 was 1090 nM. The compound `O=C1SC(=Cc2ccc(O)c(O)c2)C(=O)N1c1ccccc1` registered an XC50 of 1200 nM.

The compound `CCOc1ccc(CNCCCCCCNCc2ccc(OCC)c3ccccc23)c2ccccc12` registered an XC50 of 447 nM. Then `CS(=O)(=O)CCNc1cc(N2CCc3ncnc(Nc4ccc(OCc5cccc(F)c5)c(Cl)c4)c3C2)ncn1`, with 873 nM.

In turn, `Cc1cc(-c2cc3nc4c(c(O)n3n2)CCCC4)c(C)o1` returned an XC50 of 821 nM. Then `CC(C)(C)c1cc(NC(=O)c2ccc(Cl)c([N+](=O)[O-])c2)cc(C(C)(C)C)c1`, with 1030 nM; and `CC(C)(C)c1ccc(NC(=O)c2cccc(CN3CCCN(Cc4ccsc4)CC3)c2)cc1`, with 760 nM. With `O=C(Nc1ccc(-c2ccc(-c3nc4ccccc4[nH]3)cc2)cc1)Nc1ccc(Cl)c(Cl)c1` the figure was 98.8 nM; with `Cc1c(Cc2ccc(C(C)C)cc2)cnc2nc(N)nc(N)c12`, 298 nM.

Regarding `COc1cccc(-c2ccc3c(-c4cccc(S(C)(=O)=O)c4)cnc(N)c3c2)c1`, the XC50 worked out at 874 nM.

For the compound `Cc1ccc(-n2c(C)nc3c(Nc4ccc(-c5ccncc5)cc4)ncnc32)c(C)c1`, the XC50 turned out to be 101 nM. With `CN1CCC(NCc2cccc(-c3cnc(NCc4ccccc4)nc3)c2)CC1` the figure was 965 nM; with `CCn1c(SCc2ccccc2)nc2c1c(=O)[nH]c(=O)n2C`, 241 nM. Regarding `CC(C)CNCc1cccc(-c2ccc(CNc3ccc(C(=O)c4ccccc4)cc3)cc2)c1`, the XC50 was determined as 760 nM. As to `COC(=O)c1ccc(N2CCN(CCCCNC(=O)c3ccc(NC(=O)c4ccc(Cl)cc4)cc3)CC2)c(OC)c1`, the XC50 came out at 1300 nM. With `CCOCCCNc1nc2cc(OC)c(OC)cc2c2nc(-c3ccccc3)nn12` the figure was 209 nM; with `COc1cc2nccc(Nc3ccc4c(cnn4Cc4ccccc4F)c3)c2cc1OC`, 400 nM; with `Fc1ccc(C=NN=c2cc[nH]c3ccccc23)cc1`, 706 nM. Compound `COc1cccc(C=CC(=O)NC2CCC(CN3CCC(c4c[nH]c5ccccc45)CC3)CC2)c1OC` (configuration not stated) came in with an XC50 of 740 nM. With `CN1CCC[C@H]1COc1ccc(CN2CC[C@H](NC(=O)c3ccc(Cl)c(Cl)c3)C2)cc1Br` the figure was 983 nM; with `CCOc1ccc(-c2nonc2NC(=O)c2cccs2)cc1OCC`, 756 nM; with `Cc1cccc2nc(-c3ccc(-c4cccc(CN5CCC(CO)CC5)c4)s3)[nH]c12`, 935 nM. Regarding `COc1ccc(-n2cc(CNCCCn3ccnc3)c(-c3cccc(F)c3)n2)cc1`, the XC50 worked out at 1060 nM. Turning to `CCCCCN1C(=O)N(c2ccc(Cl)c(Cl)c2)C(N(O)C(=O)Nc2ccc(Cl)c(Cl)c2)C1(C)C` (configuration not stated), the XC50 was found to be 545 nM. With `Oc1cccc(-c2nc3cc(C4=NC5CCCCC5N4)ccc3[nH]2)c1` (configuration not stated) the figure was 592 nM; with `COc1cc2c(C3CCN(CC4CCC(NC(=O)/C=C/c5ccc(Cl)c(Cl)c5)CC4)CC3)c[nH]c2cn1` (configuration not stated), 423 nM.

Regarding `Cc1ccc(O)cc1Nc1ccnc2cc(-c3csc(CNCCN4CCOCC4)n3)ccc12`, the XC50 was found to be 884 nM.
